Experimental data: patent publication US20110306598A1, “Use of the association of a sinus node if current inhibitor and an angiotensin-converting enzyme inhibitor in the treatment of heart failure” (LES LABORATOIRES SERVIER, priority 2010, published 2011)
Marks after values point to notes of the source that are not given here.

What was measured:
[1] = system: rats with heart failure (left coronary artery ligature); assay: Heart failure induced in rats by ligature of the left coronary artery; compound A, perindopril or both for 12 weeks; type: in vivo, rat; settings: HF rats; for LVEDPVR: compliance of LV; for LVEDPVR / LVEDP / LVESP / LVESPVR / cardiac output / dP/dtmax / dP/dtmin / shortening fraction (% of the diameter of the LV) / Heart rate / tau: compound A 3 mg/kg, perindopril 0.4 mg/kg; for LVEDPVR / LVEDP / LVESP / LVESPVR / cardiac output / dP/dtmax / dP/dtmin / shortening fraction (% of the diameter of the LV) / tau: 12 weeks; for tau: relaxation time
Description: (§1) Heart failure was induced in rats by ligature of the left coronary artery (the control animals undergo an operation but are not ligated), which causes ischaemia of part of the wall of the left ventricle. The animals recuperate for 7 days and then, for 12 weeks, they are given either 3 mg/kg of compound A, or 0.4 mg/kg of perindopril, or perindopril and compound A concomitantly.

[2] = system: rats with heart failure (left coronary artery ligature); assay: Same rat heart failure model; ivabradine, perindopril or their association; type: in vivo; settings: HF rats
Description: as §1
This effect on systolic function and diastolic function was then studied using the association of perindopril and a different If current inhibitor, ivabradine.

[3] = Table 4B, ivabradine on its own

| SMILES | effect on compliance of the left ventricle, measured by LVEDPVR (in words) [1] | effect on end diastolic pressure and relaxation time (in words) [1] | effect on systolic function, seen from the LVESPVR (in words) [1] | LVEDPVR [1] | LVEDP [1] | LVESP [1] [mmHg] | LVESPVR [1] | cardiac output [1] | dP/dtmax [1] | dP/dtmin [1] | shortening fraction (% of the diameter of the LV) [1] | Heart rate ([1]; duration of treatment 4 weeks) [bpm] | Heart rate ([1]; duration of treatment 12 weeks) | tau [1] | also measured |
| --- | --- | --- | --- | --- | --- | --- | --- | --- | --- | --- | --- | --- | --- | --- | --- |
| COc1cc2c(cc1OC)CCN(C(=O)CCN(C)C[C@H]1Cc3cc(OC)c(OC)cc31)CC2 [compound A, N-{[(7S)-3,4-dimethoxybicyclo[4.2.0]octa-1,3,5-trien-7-yl]methyl}-3-(7,8-dimethoxy-1,2,4,5-tetrahydro-3H-3-benzazepin-3-yl)-N-methyl-3-oxo-1-propanamine] | very clearly improved | clearly improved | improves systolic function | 2.70^† mmHg/RVU | 4.89^† mmHg | 118 | 16.1^† mmHg/RVU | 127 mL/min | 6.78 10^3 mmHg/s | 5.87 −10^3 mmHg/s | 18.0 % of the diameter of the LV | 349.3 | 342.7^† bpm | 8.37^† ms | effect on heart rate (in words) ([1]; vs untreated HF): significant reduction in heart rate |
| COc1cc2c(cc1OC)CC(=O)N(CCCN(C)C[C@H]1Cc3cc(OC)c(OC)cc31)CC2 [ivabradine, 3-{3-[{[(7S)-3,4-dimethoxybicyclo[4.2.0]octa-1,3,5-trien-7-yl]-methyl}(methyl)amino]propyl}-7,8-dimethoxy-1,3,4,5-tetrahydro-2H-3-benzazepin-2-one] | – | – | – | – | – | – | – | – | – | – | – | – | – | – | effect on diastolic dysfunction (in words) [2]: comparable to that of perindopril on its own; LVEDPVR [2, 3]: 1.87*^† mmHg/RVU; LVESPVR [2, 3]: 20.63*^† mmHg/RVU |
| CCC[C@H](N[C@@H](C)C(=O)N1[C@H](C(=O)O)C[C@@H]2CCCC[C@@H]21)C(=O)OCC [perindopril] | very clearly improved | clearly improved | improves systolic function | 2.36^† mmHg/RVU | 5.17^† mmHg | 99 | 16.4^† mmHg/RVU | 142^† mL/min | 5.97 10^3 mmHg/s | 5.11 −10^3 mmHg/s | 17.1 % of the diameter of the LV | 388.2 | 387.7 bpm | 7.31^† ms | effect on systolic function (in words) [2]: improves the systolic function; LVEDP ([2]; Table 4a): 6.88^† mmHg; LVEDPVR ([2]; Table 4a): 2.25^† mmHg/RVU; LVESP ([2]; Table 4a): 102^† mmHg; LVESPVR ([2]; Table 4a): 14.5^† mmHg/RVU; dP/dtmax ([2]; Table 4a): 6.08^† 10^3 mmHg/s; dP/dtmin ([2]; Table 4a): 4.99 −10^3 mmHg/s; tau ([2]; Table 4a): 10.92^† ms |
